Experimental data: patent publication US12263139B2, “Use of cannabidiol in the treatment of tuberous sclerosis complex” (Jazz Pharmaceuticals Research UK Limited, priority 2017, dated 2025)

What was measured:
[1] = tested on: mTORC1 signalling (rpS6 phosphorylation); test: Western blot of rpS6 phosphorylation (mTORC1 signalling) in Tsc2−/− MEFs; type: cell-based, mouse; conditions: CBD at 5 μM, 6 h of treatment
Procedure: Cells were washed in Phosphate Buffered Saline (PBS) and then lysed directly in sample buffer (62.5 mM Tris HCL, 50 mM DTT, 2% SDS (w/v), 10% Glycerol (w/v), 0.1% Bromophenol blue (w/v) pH 7.6) and sonicated for 5×20 s cycles on full power (30 amplitude microns). Samples were boiled at 95° C. for 10 min. Lysates were resolved by SDS-PAGE and proteins were transferred to polyvinylidene difluoride membranes.
Membranes were blocked in 5% (w/v) dry milk powder dissolved in Tris-buffered saline containing 0.1% (v/v) Tween, then probed with primary antibody and horse radish peroxidase-conjugated secondary antibody. Proteins were visualized using Enhanced Chemiluminescent solution and Hyperfilm. Antibodies towards ribosomal protein S6 (rpS6), phospho-rpS6 (Ser235/236) were purchased from Cell Signaling Technology. Anti-HIF-1α was obtained from BD transduction laboratories. Statistical Analysis
Western blotting was carried out to determine whether CBD could impair mTORC1 signalling (using rpS6 phosphorylation as a readout of mTORC1 signalling).

[2] = tested on: pS6 positive cells; test: Size of pS6 positive cells in zebrafish model of TSC; type: in vivo
Source text: A zebrafish model of TSC with a tsc2 gene deletion was used. This model has been previously published and validated (Kim et al. 2011). By mating the gene deletion animals with wild-type tsc2+/+ animals, heterozygote (tsc2+/−) zebrafish were also obtained and tested in this example.
For both pS6 and TUNEL staining, non-consecutive sections were imaged using a Zeiss AxioImager microscope. Exposure time was kept constant during image acquisition and determined by the observation of a slide where primary antibody or enzyme solution was omitted. Pictures were taken with a 20× objective, using the AxioVision software, and coloured using Fiji ImageJ. All counting and measuring of cells was done in the original black and white pictures.
Statistical analysis was performed in SPSS (IBM SPSS Statistics 22), except for the chi-square test, which was done using GraphPad Prism 5. Normality and sphericity were tested using the Kolmogorov-Smirnov and Mauchly's tests, respectively. Repeated measures two-way ANOVA tests were used to analyse the locomotor assay data and cell number, while a three-way ANOVA test was used to analyse cell size. Touch response (TR) between genotypes and treatments was analysed by chi-square test. Tests were followed by Tukey or Bonferroni post-hoc tests.

[3] = treatment resistant paediatric epilepsy; cited from earlier work
[4] = TSC patients having focal onset seizures; cited from earlier work
[5] = tested on: AML 621-101 cells; test: Wound healing assay in AML cells; type: cell-based
Procedure: (i) Angiomyolipomas (AML) cells derived from a Tuberous Sclerosis Complex patient (621-101 cell-line), with a known loss of function of TSC2. […] Zeocin™ was purchased from LifeTechnologies (cat no: R25001) and was used to originally generate the stable cell line (by Prof. Lisa Henske) over two weeks of Zeocin™ selection and then for continued maintenance of the cells in tissue culture (at 100 μg/ml).
Tsc2−/− and Tsc2+/+ cell lines were cultured and maintained in DMEM supplemented with 10% (v/v) FBS and 1% (v/v) penicillin-streptomycin in a humidified incubator (5% CO2 at 37° C.). The AML −/− cell lines were cultured and maintained in DMEM supplemented with 15% (v/v) FBS and 1% (v/v) penicillin-streptomycin in a humidified incubator (5% CO2 at 37° C.). For hypoxia, cells were put into a Binder CB150 hypoxic chamber set at 1% 02 for the indicated time points
The stock concentration of CBD was made to 20 mM in dimethyl sulfoxide (DMSO). […] The final concentration of the DMSO in the cell culture medium was at a maximum level of 0.05% (v/v).
Cells were seeded in 60 mm plates and left to reach 100% confluency. Cells were then synchronised in 1% (v/v) FBS DMEM for 24 h and “wounded” with a pipette tip. Dead cells were removed with PBS wash and then subsequently replaced with DMEM (10% (v/v) FBS). […]

[6] = tested on: Tsc2−/− MEFs; test: Tumour spheroid growth (soft agar) assay in Tsc2−/− MEFs; type: cell-based, mouse; conditions: 10 μM CBD
Procedure: (ii) Tsc2−/− p53−/− and Tsc2+/+p53−/− mouse embryonic fibroblast (MEF) cell lines (now referred to as Tsc2−/− and Tsc2+/+, respectively).
The stock concentration of CBD was made to 20 mM in dimethyl sulfoxide (DMSO). CBD was added to culture media to final concentrations of either 5 μM or 10 μM, as indicated). The final concentration of the DMSO in the cell culture medium was at a maximum level of 0.05% (v/v).
Two-layered soft agar assays were carried out in 6-well plates. All cell lines were plated in complete DMEM media in 0.35% (v/v) agar at (3*10^5) over a 0.6% (v/v) agar layer. The agar was then overlaid with complete DMEM media and spheroids were grown for 14 days at 37° C. in 5% CO2. Media were changed twice a week and new drug was added to media. Pictures were taken using an inverted AMG EVOS microscope equipped with an Olympus camera. Volume of tumour spheroids was measured using ImageJ software.

C=C(C)[C@@H]1CCC(C)=C[C@H]1c1c(O)cc(CCCCC)cc1O [CBD, Cannabidiol]
rpS6 phosphorylation [1]: inhibited rpS6 phosphorylation | change in size of pS6 positive cells ([2]; main effect of treatment, compared to Danieau's or DMSO groups, FIG. 5B): −20.1% | effect on size of pS6 positive cells ([2]; tsc2+/+ zebrafish): did not affect cell size | change in size of pS6 positive cells ([2]; tsc2+/− zebrafish, compared to Danieau's, FIG. 5C): −27.6% | change in size of pS6 positive cells ([2]; tsc2+/− zebrafish, compared to the DMSO group, FIG. 5C): −18.1% | change in size of pS6 positive cells ([2]; tsc2−/− zebrafish, compared to Danieau's, FIG. 5C): −23% | change in size of pS6 positive cells ([2]; tsc2−/− zebrafish, compared to the DMSO group, FIG. 5C): −20.8% | seizure frequency [3]: significant reductions in seizure frequency | treatment of refractory epilepsy [4]: beneficial | reduction of wound closure ([5]; 20 μM CBD): 60% | reduction of wound closure ([5]; 5, 10 and 20 μM CBD, FIG. 1 (B)): effective at reducing wound closure | inhibition of tumour spheroid diameter [6]: Significance to inhibit tumour spheroid diameter was observed
